Results reported in patent US20190070170A1, “METHOD OF S[…]-1” (Macau University of Science and Technology, priority 2017, published 2019).

Tests used:
p-cPLA2 = p-cPLA2 protein expression in IL-1β-stimulated A549 cells (western blotting); assay type: cell-based; conditions: IL-1β with SIN or DEX for 48 h
Protocol: (§1) RAW264.7 and A549 cell lines were obtained from American Type Culture Collection (ATCC, Manassas, Va., USA) and maintained in DMEM (RAW264.7) or 1640 (A549) medium containing 10% FBS (Gibco-BRL, Grand Island, N.Y., USA) and antibiotics at 37° C. in a humidified atmosphere containing 5% CO2. RAW264.7 cells were plated in 6-well plates at a density of 4×10^5 cells and incubated for 24 h, then the cells were pretreated with different concentrations of SIN for 1 h before stimulating with LPS (100 ng/ml). A549 cells were seeded in 6-well plates at a density of 1×10^5 cells and incubated for 24 h, followed by pretreatment with SIN. A549 cells were then stimulated by IL-1β (1 ng/ml).
Whole-cell and nuclear proteins were obtained using RIPA lysis buffer (CST, Boston, Mass., USA) and Nuclear and Cytoplasmic Extraction Reagents kit from Thermo Scientific (Asheville, N.C., USA), respectively. For immunoblotting, proteins from whole-cell, cytoplasm, nuclear, and microsomal fractions were separated on SDS-PAGE, then transferred onto a nitrocellulose membrane from GE Healthcare Life Sciences (Buckinghamshire, UK), and incubated with 5% skimmed milk at room temperature for 1 h. […] The levels of protein expression were measured using Odyssey v3.0 software from Li-COR (Lincoln, Nebr., USA).

mPGES-1 [1] = experiment: mPGES-1 protein in microsomes of inflamed paw of carrageenan-induced rats (western blotting); assay type: in vivo, SD rats; conditions: SIN 25, 50, 100 mg/kg or DEX 2 mg/kg i.p.
Protocol: The model of carrageenan-induced paw edema was performed with SD rats (150-200 g). […] Briefly, rats were fasted for 12 h before experiment and intraperitoneal injection was performed with three different doses (25, 50 and 100 mg/kg) of SIN, or DEX (reference drug, 2 mg/kg) or 0.9% saline (Vehicle and Normal group rats), at 2 h prior to the induction of paw edema. Paw edema was induced by subcutaneous injection of 100 μl of 1% (w/v) freshly prepared λ-carrageenan (Sigma, St Louis, Mo., USA) diluted in saline in the right hind foot pad. 100 μl sterile saline was injected to the rats in the right hind paw as normal control.
After accomplish the experiment, rats were sacrificed by injection of dorminal, which contains 20% pentobarbital and followed by cervical dislocation. The paw tissues were removed and freshly frozen in liquid nitrogen immediately and stored at −80° C.

[2] = test system: collagen-induced arthritis; experiment: Collagen-II induced arthritis (CIA) in DBA/1 mice; assay type: in vivo; conditions: CIA DBA/1 mice; SIN 100 mg/kg i.p.
Protocol: Female DBA/1 mice (8-9 weeks old) were purchased from Shanghai SiLaike (SLAC) Laboratory Animal Company (Shanghai, China) and fed with a chow diet and water at room temperature. Equal volume of complete Freuend's adjuvant (CFA) and Bovine Type II Collagen (CII) were mixed and emulsified using a homogenizer (13,000 rpm) on ice. On day 0, DBA/1 mice were immunized by injecting 50 μl of CII in CFA in the tail, approximately 2 cm from the base of the tail. After injection, on day 18, mice with one or more than one paw inflamed were chosen and randomly divided into model group, SIN (100 mg/kg, i.p.) treatment group and MTX (10 mg/kg/week, p.o) treatment group, the mice without immunization were used as normal control. On day 21, these chosen mice were boosted through injecting the same volume of CII in IFA same as the day 0 immunization procedure. The incidence of joint swelling in each group was recorded every two days since drug treatment. Paw thickness (at the ankle joints of the hind paws) of each mouse was obtained by using vernier caliper to record the severity of paw swelling.
Arthritis score of each paw was evaluated every two days during experiment with the following criteria: • 0: no evidence of erythema and swelling; • 1: erythema and mild swelling confirmed to the tarsals or ankle joint; • 2: erythema and mild swelling extending from the ankle to the tarsal joints; • 3: erythema and moderate swelling extending from the ankle to metatarsal joints; and • 4: erythema and severe swelling encompass the ankle, foot and digits, or ankylosis of the limb.
The score of each paw was summed for a score of 0-16 for each mouse. Mice were then sacrificed and hind paws were removed and freshly frozen in liquid nitrogen and stored at −80° C. until used.

mPGES-1 [3] = experiment: mPGES-1 protein expression in hind paws of CIA DBA/1 mice; assay type: in vivo; conditions: SIN 100 mg/kg i.p. or MTX 10 mg/kg/week p.o.
Protocol: (§2) Female DBA/1 mice (8-9 weeks old) were purchased from Shanghai SiLaike (SLAC) Laboratory Animal Company (Shanghai, China) and fed with a chow diet and water at room temperature. Equal volume of complete Freuend's adjuvant (CFA) and Bovine Type II Collagen (CII) were mixed and emulsified using a homogenizer (13,000 rpm) on ice. On day 0, DBA/1 mice were immunized by injecting 50 μl of CII in CFA in the tail, approximately 2 cm from the base of the tail. […] The incidence of joint swelling in each group was recorded every two days since drug treatment. […]
(§3) Frozen paws were pulverized in liquid nitrogen using a stainless steel mortar and pestle, then re-suspended in 8 volumes of ice-cold PBS from Invitrogen (San Diego, Calif., USA) with 2.6 mM DTT from Promega (Madison, Wis., USA) and 2×Complete Protease Inhibitor mixture from Roche (Mannheim, Germany), and homogenized on ice bath using a tissue homogenizer from T25 digital, IKA (Stanfen, Germany) at 10,000 rpm/min for 5 min. […] The protein concentrations were measured using a Bio-Rad protein assay kit (Hercules, Calif., USA). […]
(§4) Whole-cell and nuclear proteins were obtained using RIPA lysis buffer (CST, Boston, Mass., USA) and Nuclear and Cytoplasmic Extraction Reagents kit from Thermo Scientific (Asheville, N.C., USA), respectively. […] The levels of protein expression were measured using Odyssey v3.0 software from Li-COR (Lincoln, Nebr., USA).

COX-2 = COX-2 protein expression in hind paws of CIA DBA/1 mice; assay type: in vivo; conditions: SIN 100 mg/kg i.p.
Protocol: as §2, §3, §4

NO = NO production in LPS-stimulated RAW264.7 cells (Griess reagent); assay type: cell-based, mouse; conditions: pretreatment 1 h, LPS 100 ng/ml 18 h
Protocol: as §1
RAW264.7 cells and rat peritoneal macrophages were seeded in a 96-well plate at density of 1.4×10^4 and 1.5×10^5 cells, respectively. Various concentration of SIN was added to the cells for 1 hour before LPS stimulation. After stimulation with LPS for 18 h (RAW264.7 cells) or 24 h (rat peritoneal macrophages), MTT solution was added to each well and incubated for another 4 hours. 100 μl 10% SDS-HCl solution was added to each well for overnight to dissolve the formazan dye. The optical density was measured at 570 nm against a reference wavelength of 650 nm using a microplate UV/VIS spectrophotometer (Tecan, Mannedorf, Switzerland). […]

SMILES: COC1=C[C@@H]2[C@@H]3Cc4ccc(OC)c(O)c4[C@]2(CCN3C)CC1=O [SIN, sinomenine]
- p-cPLA2 protein expression (p-cPLA2): did not suppress
- mPGES-1 protein expression in inflamed paw tissues (mPGES-1 [1]): strongly down-regulated
- arthritic scores (total of four paws) [2]: decreased
- average thickness of the inflamed hind paws [2]: decreased average thickness
- onset of joint swelling (incidence of arthritis) [2]: delayed the onset of the joint swelling
- mPGES-1 protein expression in inflamed hind paws (mPGES-1 [3]): significantly decreased
- COX-2 expression in paw tissues (COX-2): did not produce observable changes
- NO production (nitrite) (NO): significantly inhibited
